In ChEMBL document CHEMBL5120839, “Design, synthesis and antibacterial activity of novel pleuromutilin derivatives with thieno[2,3-d]pyrimidine substitution” (Eur J Med Chem, 2022):
Values after ≈ are worked out from the molar mass of the structure shown.

Key:
Assay type in all cases: functional
[1] = tested on: Staphylococcus aureus; assay: Antibacterial activity against Staphylococcus aureus assessed as diameter of the inhibition circle at 1 mg/ml incubated for 48 hrs
[2] = tested on: Staphylococcus aureus; assay: Antibacterial activity against Staphylococcus aureus assessed as inhibition of bacterial growth incubated for 24 hrs by microbroth two-fold dilution method
[3] = tested on: Streptococcus agalactiae; assay: Antibacterial activity against Streptococcus agalactiae assessed as inhibition of bacterial growth incubated for 24 hrs by microbroth two-fold dilution method
[4] = tested on: Escherichia coli; assay: Antibacterial activity against Escherichia coli assessed as inhibition of bacterial growth incubated for 24 hrs by microbroth two-fold dilution method
[5] = tested on: Staphylococcus aureus; assay: Antibacterial activity against Methicillin-resistant Staphylococcus aureus BNCC 337371 assessed as inhibition of bacterial growth incubated for 24 hrs by microbroth two-fold dilution method
[6] = tested on: Staphylococcus aureus; assay: Antibacterial activity against Staphylococcus aureus assessed as bacterial growth by measuring optical density incubated for 12 hrs by real time growth curve analysis
[7] = tested on: Streptococcus agalactiae; assay: Antibacterial activity against Streptococcus agalactiae assessed as bacterial growth by measuring optical density at 0.5 times MIC incubated for 12 hrs by real time growth curve analysis
[8] = tested on: Escherichia coli; assay: Antibacterial activity against Escherichia coli assessed as bacterial growth by measuring optical density at 0.5 times MIC incubated for 12 hrs by real time growth curve analysis
[9] = tested on: Streptococcus agalactiae; assay: Antibacterial activity against Streptococcus agalactiae assessed as bacterial growth by measuring optical density at 1 to 2 times MIC incubated for 12 hrs by real time growth curve analysis
[10] = tested on: Escherichia coli; assay: Antibacterial activity against Escherichia coli assessed as bacterial growth by measuring optical density at 1 to 2 times MIC incubated for 12 hrs by real time growth curve analysis

MIC [2] [µg/mL] | MIC [3] [µg/mL] | MIC [4] [µg/mL] | Structure (SMILES) | inhibition zone diameter [1] [mm] | MIC [5] [µg/mL] | OD [6] | OD [7] | OD [8] | OD [9] | OD [10] | Activity [1] [mM]
0.488 (≈ 0.814 µM) | 0.488 (≈ 0.814 µM) | 0.488 (≈ 0.814 µM) | C=C[C@]1(C)C[C@@H](OC(=O)CSc2nc(NCCO)cc(C(F)(F)F)n2)[C@]2(C)[C@H](C)CC[C@]3(CCC(=O)[C@H]32)[C@@H](C)[C@@H]1O | 29 |  |  |  |  |  |  | 
0.977 (≈ 1.5 µM) | 0.488 (≈ 0.748 µM) | 7.81 (≈ 12 µM) | C=C[C@]1(C)C[C@@H](OC(=O)CSc2nc(N/N=C/c3cccs3)c3ccsc3n2)[C@]2(C)[C@H](C)CC[C@]3(CCC(=O)[C@H]32)[C@@H](C)[C@@H]1O | 22.8 |  |  |  |  |  |  | 
0.977 (≈ 1.44 µM) | 0.244 (≈ 0.361 µM) | > 15.6 | C=C[C@]1(C)C[C@@H](OC(=O)CSc2nc(N/N=C/c3ccccc3OC)c3ccsc3n2)[C@]2(C)[C@H](C)CC[C@]3(CCC(=O)[C@H]32)[C@@H](C)[C@@H]1O | 21.1 |  |  |  |  |  |  | 
0.244 (≈ 0.373 µM) | 0.122 (≈ 0.186 µM) | 3.91 (≈ 5.96 µM) | C=C[C@]1(C)C[C@@H](OC(=O)CSc2nc(N3CCC(N(C)C)CC3)c3ccsc3n2)[C@]2(C)[C@H](C)CC[C@]3(CCC(=O)[C@H]32)[C@@H](C)[C@@H]1O | 27.2 |  |  |  |  |  |  | 
7.81 (≈ 11.3 µM) | 0.244 (≈ 0.352 µM) | > 15.6 | C=C[C@]1(C)C[C@@H](OC(=O)CSc2nc(N/N=C/c3ccc(OC)cc3O)c3ccsc3n2)[C@]2(C)[C@H](C)CC[C@]3(CCC(=O)[C@H]32)[C@@H](C)[C@@H]1O | 23 |  |  |  |  |  |  | 
0.244 (≈ 0.447 µM) | 0.244 (≈ 0.447 µM) | 7.81 (≈ 14.3 µM) | C=C[C@]1(C)C[C@@H](OC(=O)CSc2nc(C)cc(NCCO)n2)[C@]2(C)[C@H](C)CC[C@]3(CCC(=O)[C@H]32)[C@@H](C)[C@@H]1O | 22.8 |  |  |  |  |  |  | 
7.81 (≈ 11.4 µM) | 0.061 (≈ 0.0893 µM) | > 15.6 | C=C[C@]1(C)C[C@@H](OC(=O)CSc2nc(N/N=C/c3ccc(F)cc3F)c3ccsc3n2)[C@]2(C)[C@H](C)CC[C@]3(CCC(=O)[C@H]32)[C@@H](C)[C@@H]1O | 22.8 |  |  |  |  |  |  | 
0.122 (≈ 0.199 µM) | 0.061 (≈ 0.0994 µM) | 1.95 (≈ 3.18 µM) | C=C[C@]1(C)C[C@@H](OC(=O)CSc2nc(N3CCOCC3)c3ccsc3n2)[C@]2(C)[C@H](C)CC[C@]3(CCC(=O)[C@H]32)[C@@H](C)[C@@H]1O | 21.6 |  |  |  |  |  |  | 
3.91 (≈ 5.27 µM) | 1.95 (≈ 2.63 µM) | > 15.6 | C=C[C@]1(C)C[C@@H](OC(=O)CSc2nc(N/N=C/c3ccc(O)c(Br)c3)c3ccsc3n2)[C@]2(C)[C@H](C)CC[C@]3(CCC(=O)[C@H]32)[C@@H](C)[C@@H]1O | 21 |  |  |  |  |  |  | 
7.81 (≈ 10.9 µM) | 0.244 (≈ 0.341 µM) | > 15.6 | C=C[C@]1(C)C[C@@H](OC(=O)CSc2nc(N/N=C/c3ccc(C(F)(F)F)cc3)c3ccsc3n2)[C@]2(C)[C@H](C)CC[C@]3(CCC(=O)[C@H]32)[C@@H](C)[C@@H]1O | 22.2 |  |  |  |  |  |  | 
7.81 (≈ 11.3 µM) | 0.0153 (≈ 0.0221 µM) | 7.81 (≈ 11.3 µM) | C=C[C@]1(C)C[C@@H](OC(=O)CSc2nc(N/N=C/c3ccccc3[N+](=O)[O-])c3ccsc3n2)[C@]2(C)[C@H](C)CC[C@]3(CCC(=O)[C@H]32)[C@@H](C)[C@@H]1O | 21.5 |  |  |  |  |  |  | 
0.122 (≈ 0.23 µM) | 0.488 (≈ 0.918 µM) | 3.91 (≈ 7.35 µM) | C=C[C@]1(C)C[C@@H](OC(=O)CSc2nccc(NCCO)n2)[C@]2(C)[C@H](C)CC[C@]3(CCC(=O)[C@H]32)[C@@H](C)[C@@H]1O |  |  |  |  |  |  |  | 27.3
0.122 (≈ 0.203 µM) | 0.488 (≈ 0.811 µM) | 0.977 (≈ 1.62 µM) | C=C[C@]1(C)C[C@@H](OC(=O)CSc2nc(NCCO)c3c(C)csc3n2)[C@]2(C)[C@H](C)CC[C@]3(CCC(=O)[C@H]32)[C@@H](C)[C@@H]1O | 25.9 |  |  |  |  |  |  | 
0.244 (≈ 0.408 µM) | 0.122 (≈ 0.204 µM) | 3.91 (≈ 6.52 µM) | C=C[C@]1(C)C[C@@H](OC(=O)CSc2nc(C)cc(N3CCN(CC)CC3)n2)[C@]2(C)[C@H](C)CC[C@]3(CCC(=O)[C@H]32)[C@@H](C)[C@@H]1O | 23.9 |  |  |  |  |  |  | 

Structure (SMILES) | MIC [2] [µg/mL] | MIC [3] [µg/mL] | MIC [4] [µg/mL] | inhibition zone diameter [1] [mm] | MIC [5] [µg/mL] | OD [6] | OD [7] | OD [8] | OD [9] | OD [10] | Activity [1] [mM]
C=C[C@]1(C)C[C@@H](OC(=O)CS[C@@H]2C[C@H]3CC[C@@H](C2)N3C)[C@]2(C)[C@H](C)CC[C@]3(CCC(=O)[C@H]32)[C@@H](C)[C@@H]1O [RETAPAMULIN] | 0.122 (≈ 0.236 µM) | 0.0305 (≈ 0.0589 µM) | 1.95 (≈ 3.77 µM) | 30.4 | 0.0621 (≈ 0.12 µM) |  |  |  |  |  | 
C=C[C@]1(C)C[C@@H](OC(=O)CSc2nc(NCCO)c3ccccc3n2)[C@]2(C)[C@H](C)CC[C@]3(CCC(=O)[C@H]32)[C@@H](C)[C@@H]1O | 0.0153 (≈ 0.0263 µM) | 0.0153 (≈ 0.0263 µM) | 0.03 (≈ 0.0516 µM) | 30.5 | 0.0305 (≈ 0.0524 µM) | <0.3 | <0.3 | <0.3 | 0.1 | 0.1 | 
